Values joined by “and” are separate entries in the source; they are usually repeats but may differ in a detail not shown here. Equal values may be shown once.
What was measured:
Type in all cases: cell-based
B16 melanoma [1] = test: Cell viability rate measurement (Experimental Example 2, cell protein amount); settings: for cell viability rate (single): single use, 3 days; for safety when combined as component (B): summary of Table 1, highest grade stated
Method: B16 melanoma was cultured in DMEM (Dulbecco's Modified Eagle Medium) (high glucose, containing 10% serum). After confluence, the cells were seeded on a 6 well plate. The next day, each well medium was exchanged with DMEM (300 μM tyrosine added) added with each evaluation sample at a given evaluation concentration (Table 1), and the cells were cultured for 3 days. The medium was recovered, and the cells were rinsed once with PBS (phosphate-buffered saline). A blending solution of 4% aqueous sodium hydroxide solution and dimethyl sulfoxide (9:1) was added to the well, and the mixture was stood at room temperature for 10 min. The cells were dissolved and recovered, and centrifuged at 3500 rpm for 10 min, and the supernatant was diluted 3-fold with milli-Q water. Solution A (DC Protein Assay; BIO RAD, 100 μl) was added to the diluted solution (20 μl) and the mixture was admixed in a vortex. Solution B (DC Protein Assay; BIO RAD, 800 μl) was added and mixed therewith, and the mixture was stood at room temperature for 15 min. After standing, the absorbance (750 nm) was measured by a spectrophotometer. In addition, the analytical curve of albumin was determined, the protein amount of the above-mentioned solution was calculated, and the relative rate was taken as a viability rate.
(§1) The spectrophotometer used in this melanin production suppression test was DU800, manufactured by BECKMAN COULTER.
The cell viability rate of each sample was measured for a single use and combined use, and the effect of the combined use was evaluated by the following criteria using the degree of toxic mitigation.
The degree of toxic mitigation was cell viability rate (%) by combined use of component (A) and component (B)−cell viability rate (%) by single use of component (B).

B16 melanoma [2] = test: Melanin production rate measurement (Experimental Example 1, 6 well plate, medium + cell melanin); settings: for melanin production suppressive effect / whitening effect when combined as component (B): combined with (A) N-Ac-CP2Et; for melanin production suppressive effect / whitening effect when combined as component (B) / melanin production suppressing effect / whitening effect when combined as component (B): summary of Table 1, highest grade stated; for melanin production suppressing effect / whitening effect when combined as component (B): combined with (A) N-Ac-CP; for activity at 20000 µM: 20 mM; for activity at 22500 µM: 22.5 mM
Method: B16 melanoma was cultured in DMEM (Dulbecco's Modified Eagle Medium) (high glucose, containing 10% serum). After confluence, the cells were seeded on a 6 well plate. The next day, each well medium was exchanged with DMEM (300 μM tyrosine added) added with each evaluation sample at a given evaluation concentration (Table 1), and the cells were cultured for 3 days. […] The medium was recovered, and centrifuged at 10000 rpm for 10 min. The absorbance of the supernatant at 450 nm was measured by spectrophotometer. The medium was recovered, and the cells were rinsed once with PBS (phosphate-buffered saline). A blending solution of 4% aqueous sodium hydroxide solution and dimethyl sulfoxide (9:1) was added to the well, and the mixture was stood at room temperature for 10 min. The cells were dissolved and recovered, and centrifuged at 3500 rpm for 10 min. The absorbance (450 nm) of the supernatant was measured by spectrophotometer. The total of the melanin amount in the medium and in the cell was calculated from the analytical curve drawn using synthetic melanin. By setting the calculated value 3 days after addition of each sample at a given concentration as a relative percentage to the calculated value of the control (no sample addition) defined as 100%, the melanin production rate of each sample to the melanin amount in the control as 100% was calculated. When a sample was dissolved dimethyl sulfoxide and then added, a sample containing 0.1% dimethyl sulfoxide was used as a control (no sample addition). The melanin production rate was standardized from the amount of cell protein obtained in Experimental Example 2.
as §1
The melanin production rate of each sample was measured for a single use and combined use, and the effect of the combined use was evaluated by the following criteria using the theoretical value.
The theoretical value was melanin production rate (%) by single use of component (A)×melanin production rate (%) by single use of component (B)/100.

B16 melanoma [3] = test: Melanin production rate measurement (Experimental Example 3, 96 well plate, 5-25 mM); settings: for IC50: Mus musculus, B16, 72 h, 3 days, samples 5-25 mM, read-out: concentration suppressing melanin production by 50%
Method: The cysteine derivatives of Synthetic Example 1 and Synthetic Example 3 were measured for a melanin production rate for comparison of a whitening effect. B16 melanoma was cultured in DMEM (Dulbecco's Modified Eagle Medium) (containing high glucose, serum 10%). After confluence, it was seeded in a 96 well plate. The next day, each well medium was exchanged with DMEM added with each evaluation sample adjusted to 5-25 mM, and the cells were cultured for 3 days. The absorbance at 450 nm was measured by a microplatereader. By setting the measurement value 3 days after addition of each sample at a given concentration as a relative percentage to the measurement value of the control (no sample addition) defined as 100%, the melanin production rate of each sample to the melanin amount in the control as 100% was calculated.
The calculated concentrations of the cysteine derivatives of Synthetic Example 1 and Synthetic Example 3 necessary for suppressing the melanin production rate by 50% are shown in Table 2.
The microplatereader used in this melanin production suppressing test was MULTISKAN FC manufactured by Thermo Fisher Scientific Inc.

[4] = Mus musculus, B16, 72 h, single use, 3 days, control = 100%

COc1ccc(C(=O)O)c(O)c1 [4-MS, 4-methoxy salicylic acid]
cell viability rate (single) (B16 melanoma [1]; 5 mM (0.0084%)): 87.0%
activity at 5000 µM (B16 melanoma [2]; Mus musculus, B16, 72 h, 5 mM (0.0084%), single use, 3 days, control = 100%): 100%
melanin production suppressive effect / whitening effect when combined as component (B) (B16 melanoma [2]): extremely remarkably improved

N[C@@H](CCC(=O)N[C@@H](CS)C(=O)NCC(=O)O)C(=O)O [GSH, glutathione (reduced type)]
cell viability rate (single) (B16 melanoma [1]; 0.5 mM): 94.4%
cell viability rate (single) (B16 melanoma [1]; 2 mM): 67.8%
safety when combined as component (B) (B16 melanoma [1]; combined with (A) N-Ac-CP2Et): remarkably improved
safety when combined as component (B) (B16 melanoma [1]; combined with (A) N-Ac-CP): remarkably improved
activity at 500 µM (B16 melanoma [2]; Mus musculus, B16, 72 h, 0.5 mM, single use, 3 days, control = 100%): 100%
activity at 2000 µM (B16 melanoma [2]; Mus musculus, B16, 72 h, 2 mM, single use, 3 days, control = 100%): 100%
melanin production suppressive effect / whitening effect when combined as component (B) (B16 melanoma [2]): improved
melanin production suppressing effect / whitening effect when combined as component (B) (B16 melanoma [2]): extremely remarkably improved

CCOC(=O)C1(C)SCC(C(=O)O)N1C(C)=O (stereo not shown) [N—Ac-CP2Et, N-acetyl-2-methylthiazolidine-2,4-dicarboxylic acid 2-ethyl ester]
cell viability rate (single) (B16 melanoma [1]; 15 mM): 105.7%
cell viability rate (single) (B16 melanoma [1]; 20 mM): 101.5%
cell viability rate (single) (B16 melanoma [1]; 22.5 mM): 98.6%
activity at 15000 µM (B16 melanoma [2]; Mus musculus, B16, 72 h, 15 mM, single use, 3 days, control = 100%): 92.2%
activity at 20000 µM (B16 melanoma [2]; [4]): 62%
activity at 22500 µM (B16 melanoma [2]; [4]): 48.6%
IC50 (B16 melanoma [3]): 18.9 mM

CC(=O)N1C(C(=O)O)CSC1(C)C(=O)O (stereo not shown) [N—Ac-CP, N-acetyl-2-methylthiazolidine-2,4-dicarboxylic acid]
cell viability rate (single) (B16 melanoma [1]; 20 mM): 95.6%
cell viability rate (single) (B16 melanoma [1]; 22.5 mM): 100.6%
cell viability rate (single) (B16 melanoma [1]; 25 mM): 97.8%
activity at 20000 µM (B16 melanoma [2]; [4]): 59.4%
activity at 22500 µM (B16 melanoma [2]; [4]): 45.1%
activity at 25000 µM (B16 melanoma [2]; Mus musculus, B16, 72 h, 25 mM, single use, 3 days, control = 100%): 35.3%

CCOC(=O)[C@]1(C)SC[C@@H](C(=O)O)N1C(C)=O [Synthetic Example 3, (2S,4R)-N-acetyl-2-methylthiazolidine-2,4-dicarboxylic acid 2-ethyl ester]
IC50 (B16 melanoma [3]): 16.6 mM
melanin production suppressing effect compared with Synthetic Example 1 (B16 melanoma [3]; from Table 2): stronger

OC[C@H]1O[C@@H](Oc2ccc(O)cc2)[C@H](O)[C@@H](O)[C@@H]1O [arbutin]
cell viability rate (single) (B16 melanoma [1]; 0.5 mM): 85.5% and 96.5%
safety when combined as component (B) (B16 melanoma [1]; combined with (A) N-Ac-CP2Et): improved
safety when combined as component (B) (B16 melanoma [1]; combined with (A) N-Ac-CP): improved
melanin production suppressive effect / whitening effect when combined as component (B) (B16 melanoma [2]): extremely remarkably improved
melanin production suppressing effect / whitening effect when combined as component (B) (B16 melanoma [2]): improved

CCCCCCCCCCCCCCCCOC1=C(O)C(=O)O[C@@H]1[C@@H](O)CO [cetyl ascorbyl ether, 3-o-cetyl ascorbyl ether]
cell viability rate (single) (B16 melanoma [1]; 30 μM): 75.8%
Melanin production rate (single) (B16 melanoma [2]; 30 μM, single use, 3 days, control = 100%): 72.8% and 67.6%
melanin production suppressive effect / whitening effect when combined as component (B) (B16 melanoma [2]): remarkably improved
melanin production suppressing effect / whitening effect when combined as component (B) (B16 melanoma [2]): remarkably improved

O=c1oc2c(O)c(O)cc3c(=O)oc4c(O)c(O)cc1c4c23 [ellagic acid]
cell viability rate (single) (B16 melanoma [1]; 6 μM): 96.1%
safety when combined as component (B) (B16 melanoma [1]; combined with (A) N-Ac-CP2Et): extremely remarkably improved
activity at 6 µM (B16 melanoma [2]; Mus musculus, B16, 72 h, 6 μM, single use, 3 days, control = 100%): 100%
melanin production suppressive effect / whitening effect when combined as component (B) (B16 melanoma [2]): improved

O=c1cc(CO)occ1O [kojic acid]
cell viability rate (single) (B16 melanoma [1]; 0.25 mM): 99.1%
safety when combined as component (B) (B16 melanoma [1]; combined with (A) N-Ac-CP2Et): extremely remarkably improved
activity at 250 µM (B16 melanoma [2]; Mus musculus, B16, 72 h, 0.25 mM, single use, 3 days, control = 100%): 66%
melanin production suppressive effect / whitening effect when combined as component (B) (B16 melanoma [2]): extremely remarkably improved

CCCCC/C=C\C/C=C\CCCCCCCC(=O)O [linoleic acid]
cell viability rate (single) (B16 melanoma [1]; 75 μM): 105.2%
safety when combined as component (B) (B16 melanoma [1]; combined with (A) N-Ac-CP2Et): remarkably improved
activity at 75 µM (B16 melanoma [2]; Mus musculus, B16, 72 h, 75 μM, single use, 3 days, control = 100%): 71.3%
melanin production suppressive effect / whitening effect when combined as component (B) (B16 melanoma [2]): improved

CCCCCCc1ccc(O)cc1O [rcinol, 4-hexylresorcinol]
cell viability rate (single) (B16 melanoma [1]; 12.5 μM): 94.3%
safety when combined as component (B) (B16 melanoma [1]; combined with (A) N-Ac-CP2Et): remarkably improved
activity at 12.5 µM (B16 melanoma [2]; Mus musculus, B16, 72 h, 12.5 μM, single use, 3 days, control = 100%): 66.2%
melanin production suppressive effect / whitening effect when combined as component (B) (B16 melanoma [2]): improved

NC[C@H]1CC[C@H](C(=O)O)CC1 [tranexamic acid, trans-4-(aminomethyl)-cyclohexanecarboxylic acid]
cell viability rate (single) (B16 melanoma [1]; 10 mM): 93.1%
safety when combined as component (B) (B16 melanoma [1]; combined with (A) N-Ac-CP2Et): remarkably improved
activity at 10000 µM (B16 melanoma [2]; Mus musculus, B16, 72 h, 10 mM, single use, 3 days, control = 100%): 100%
melanin production suppressive effect / whitening effect when combined as component (B) (B16 melanoma [2]): extremely remarkably improved

Source: US9308157B2, “Whitening cosmetic” (AJINOMOTO CO., INC., priority 2011, dated 2016)
